The assay concerns Mtb H37Rv thyX Tet-OFF conditional knockdown mutant. It is filed as cell-based, Mycobacterium tuberculosis.

The values that follow come from article PMC4901301 (Scientific Reports, 2016).

Take `O=C1C=C(Cc2ccc(F)cc2)C(=O)c2ccccc21` [Compound D4]: the “MIC90 shift (increase in potency) upon ThyX depletion” value was “no shift”.
`COc1ccc(CC2=CC(=O)c3ccccc3C2=O)cc1` [Compound D5]: the “MIC90 shift (increase in potency) upon ThyX depletion” value is reported as “no shift”.
For the compound `CC(=O)N(C1=C(Cl)C(=O)c2ccccc2C1=O)c1cccc(F)c1` [Compound E10], the “MIC90 shift (increase in potency) upon ThyX depletion” value is “no shift”.
On to `O=C1C(Cl)=C(N2CCN(C(=O)c3ccc(F)cc3)CC2)C(=O)c2ccccc21` [Compound F1], for which the “MIC90 shift (increase in potency) upon ThyX depletion” value is “no shift”.
For `CCS(=O)(=O)N1CCN(C2=C(Cl)C(=O)c3ccccc3C2=O)CC1` [Compound F2], the “MIC90 shift (increase in potency) upon ThyX depletion” value is reported as ~ 2 fold.
